Results published in US20110318741A1, “BIOMARKERS FOR THE TREATMENT OF PSORIASIS” (priority 2010, published 2011).

Assays:
psoriasis lesional skin = assay: Histological analysis (immunohistochemistry, H&E) of skin biopsies from psoriasis patients in a clinical trial; assay type: in vivo, human; conditions: week 4 biopsies; 20 mg b.i.d.
Description: Skin biopsies were evaluated on 20 patients in a clinical trial, where 20 mg of (S)—N-(2-(1-(3-ethoxy-4-methoxyphenyl)-2-(methylsulfonyl)ethyl)-1,3-dioxoisoindolin-4-yl)acetamide was administered b.i.d. to patients with psoriasis. Skin biopsies were done 4 weeks and 12 weeks post-treatment.
The biopsies were subjected to a histological analysis in which response was assessed in H&E stained sections of skin biopsies and after staining frozen sections of skin biopsies with antibodies to keratin 16. CD3, CD11c. ICAM-1. Langerin, CD56, Foxp3, and HLA-DR. This analysis thus included an assessment of epidermal growth/differentiation, skin infiltration by T-cells and DC subsets, presence of regulatory T-cells, and presence of inflammation-regulating molecules in skin lesions.
(§1) The pharmacodynamic effects of (S)—N-(2-(1-(3-ethoxy-4-methoxyphenyl)-2-(methylsulfonyl)ethyl)-1,3-dioxoisoindolin-4-yl)acetamide were studied in skin biopsies from subjects treated with the compound in a phase 2, multi-center, open-label study evaluating the safety, tolerability, and efficacy of the compound in recalcitrant psoriasis vulgaris. Skin biopsies were taken from uninvolved and involved skin at baseline, and from involved skin after treatment with (S)—N-(2-(1-(3-ethoxy-4-methoxyphenyl)-2-(methylsulfonyl)ethyl)-1,3-dioxoisoindolin-4-yl)acetamide 20 mg BID after 4 and 12 weeks.
Skin biopsies were evaluated on 20 patients in this trial. The biopsies were analyzed by immunohistochemistry for a set of cellular markers (keratin 16, CD3. CD11c. ICAM-1, Langerin, CD56, Foxp3, and HLA-DR) to assess epidermal growth/differentiation, skin infiltration by T-cells and dendritic cells (DC), presence of regulatory T-cells, and the presence of inflammation-regulating molecules in skin lesions.

[1] = test system: recalcitrant psoriasis vulgaris; assay: PASI score in phase 2, multi-center, open-label study; assay type: in vivo, human; conditions: for PSAI Median Change (%): 20 mg BID; for subjects who had PASI-75 response: week 12
Description: as §1
Additionally, the reductions observed from biopsies were evaluated separately in responders and non-responders.
To identify changes in cellular infiltration or gene expression that correlate with changes in PASI score, a correlation analysis was performed using the Spearman rank-order correlation method. […] A strong trend was observed between the decrease in CD11c+myeloid DC in the epidermis the decrease in PASI score at week 4 (p=0.052).

Q: Which “median reduction of dermal CD11c+ DCs” value (psoriasis lesional skin) does the source give for `CCOc1cc([C@@H](CS(C)(=O)=O)N2C(=O)c3cccc(NC(C)=O)c3C2=O)ccc1OC` [(S)—N-(2-(1-(3-ethoxy-4-methoxyphenyl)-2-(methylsulfonyl)ethyl)-1,3-dioxoisoindolin-4-yl)acetamide] here?
A: The value was 45%.

Q: What about the “PSAI Median Change (%)” value ([1]; Week 4, subjects also with CD3 in Dermis values, No. 19) of the same compound?
A: Its value is −29.0%.

Q: What about the “PSAI Median Change (%)” value ([1]; Week 4, subjects also with CD3 in Epidermis values, No. 19) of the same compound?
A: The value was −29.0%.

Q: What about the “PSAI Median Change (%)” value ([1]; Week 4, subjects also with CD11c in Dermis values, No. 20) of the same compound?
A: Its value is −32.0%.

Q: And the “PSAI Median Change (%)” value ([1]; Week 4, subjects also with CD11c in Epidermis values, No. 18)?
A: Its value is −26.5%.

Q: What about the “PSAI Median Change (%)” value ([1]; Week 4, subjects also with CD56 in Dermis values, No. 20) of the same compound?
A: Its value is −32.0%.

Q: And the “PSAI Median Change (%)” value ([1]; Week 4, subjects also with CD56 in Epidermis values, No. 16)?
A: The value was −15.0%.

Q: And the “PSAI Median Change (%)” value ([1]; Week 4, subjects also with CD83/hARP values, No. 15)?
A: The value was −18.0%.

Q: And the “PSAI Median Change (%)” value ([1]; Week 4, subjects also with CXCL9/hARP values, No. 17)?
A: Its value is −29.0%.

Q: And the “PSAI Median Change (%)” value ([1]; Week 4, subjects also with DEFB4/hARP values, No. 16)?
A: Its value is −23.5%.

Q: What about the “PSAI Median Change (%)” value ([1]; Week 4, subjects also with IFNγ/hARP values, No. 15) of the same compound?
A: The value was −35.0%.

Q: What about the “PSAI Median Change (%)” value ([1]; Week 4, subjects also with IL-2/hARP values, No. 12) of the same compound?
A: The value was −32.0%.

Q: What about the “PSAI Median Change (%)” value ([1]; Week 4, subjects also with IL-8/hARP values, No. 18) of the same compound?
A: The value was −32.0%.

Q: And the “PSAI Median Change (%)” value ([1]; Week 4, subjects also with IL-10/hARP values, No. 18)?
A: Its value is −32.0%.

Q: What about the “PSAI Median Change (%)” value ([1]; Week 4, subjects also with IL-17A/hARP values, No. 16) of the same compound?
A: Its value is −23.5%.

Q: What about the “PSAI Median Change (%)” value ([1]; Week 4, subjects also with IL-22/hARP values, No. 10) of the same compound?
A: Its value is −18.5%.

Q: And the “PSAI Median Change (%)” value ([1]; Week 4, subjects also with K16/hARP values, No. 18)?
A: The value was −32.0%.

Q: What about the “PSAI Median Change (%)” value ([1]; Week 4, subjects also with Langerin in Dermis values, No. 17) of the same compound?
A: Its value is −18.0%.

Q: And the “PSAI Median Change (%)” value ([1]; Week 4, subjects also with Langerin in Epidermis values, No. 20)?
A: Its value is −32.0%.

Q: What about the “PSAI Median Change (%)” value ([1]; Week 4, subjects also with MX1/hARP values, No. 17) of the same compound?
A: Its value is −29.0%.

Q: And the “PSAI Median Change (%)” value ([1]; Week 4, subjects also with TNFα/hARP values, No. 17)?
A: The value was −29.0%.

Q: And the “PSAI Median Change (%)” value ([1]; Week 4, subjects also with Thickness values, No. 19)?
A: The value was −29.0%.

Q: What about the “PSAI Median Change (%)” value ([1]; Week 4, subjects also with iNOS/hARP values, No. 15) of the same compound?
A: Its value is −35.0%.

Q: And the “PSAI Median Change (%)” value ([1]; Week 4, subjects also with p19/hARP values, No. 18)?
A: The value was −32.0%.

Q: What about the “PSAI Median Change (%)” value ([1]; Week 4, subjects also with p40/hARP values, No. 13) of the same compound?
A: The value was −29.0%.

Q: And the “PSAI Median Change (%)” value ([1]; Week 12, subjects also with CD3 in Dermis values, No. 15)?
A: Its value is −48.0%.

Q: And the “PSAI Median Change (%)” value ([1]; Week 12, subjects also with CD3 in Epidermis values, No. 15)?
A: Its value is −48.0%.

Q: And the “PSAI Median Change (%)” value ([1]; Week 12, subjects also with CD11c in Dermis values, No. 14)?
A: Its value is −52.5%.

Q: And the “PSAI Median Change (%)” value ([1]; Week 12, subjects also with CD11c in Epidermis values, No. 13)?
A: Its value is −45.0%.

Q: And the “PSAI Median Change (%)” value ([1]; Week 12, subjects also with CD56 in Dermis values, No. 15)?
A: Its value is −48.0%.

Q: What about the “PSAI Median Change (%)” value ([1]; Week 12, subjects also with CD56 in Epidermis values, No. 12) of the same compound?
A: Its value is −42.5%.

Q: And the “PSAI Median Change (%)” value ([1]; Week 12, subjects also with CD83/hARP values, No. 11)?
A: Its value is −48.0%.

Q: And the “PSAI Median Change (%)” value ([1]; Week 12, subjects also with CXCL9/hARP values, No. 11)?
A: The value was −48.0%.

Q: What about the “PSAI Median Change (%)” value ([1]; Week 12, subjects also with DEFB4/hARP values, No. 10) of the same compound?
A: The value was −46.5%.

Q: And the “PSAI Median Change (%)” value ([1]; Week 12, subjects also with IFNγ/hARP values, No. 12)?
A: The value was −54.0%.

Q: And the “PSAI Median Change (%)” value ([1]; Week 12, subjects also with IL-2/hARP values, No. 10)?
A: The value was −54.0%.

Q: And the “PSAI Median Change (%)” value ([1]; Week 12, subjects also with IL-8/hARP values, No. 14)?
A: The value was −54.0%.

Q: And the “PSAI Median Change (%)” value ([1]; Week 12, subjects also with IL-10/hARP values, No. 14)?
A: Its value is −54.0%.

Q: What about the “PSAI Median Change (%)” value ([1]; Week 12, subjects also with IL-17A/hARP values, No. 10) of the same compound?
A: Its value is −46.5%.

Q: And the “PSAI Median Change (%)” value ([1]; Week 12, subjects also with IL-22/hARP values, No. 6)?
A: The value was −46.5%.

Q: And the “PSAI Median Change (%)” value ([1]; Week 12, subjects also with K16/hARP values, No. 14)?
A: Its value is −54.0%.

Q: What about the “PSAI Median Change (%)” value ([1]; Week 12, subjects also with Langerin in Dermis values, No. 12) of the same compound?
A: Its value is −54.0%.

Q: What about the “PSAI Median Change (%)” value ([1]; Week 12, subjects also with Langerin in Epidermis values, No. 15) of the same compound?
A: The value was −48.0%.

Q: And the “PSAI Median Change (%)” value ([1]; Week 12, subjects also with MX1/hARP values, No. 11)?
A: The value was −48.0%.

Q: What about the “PSAI Median Change (%)” value ([1]; Week 12, subjects also with TNFα/hARP values, No. 13) of the same compound?
A: The value was −60.0%.

Q: And the “PSAI Median Change (%)” value ([1]; Week 12, subjects also with Thickness values, No. 14)?
A: The value was −46.5%.

Q: What about the “PSAI Median Change (%)” value ([1]; Week 12, subjects also with iNOS/hARP values, No. 11) of the same compound?
A: Its value is −48.0%.

Q: What about the “PSAI Median Change (%)” value ([1]; Week 12, subjects also with p19/hARP values, No. 14) of the same compound?
A: Its value is −54.0%.

Q: And the “PSAI Median Change (%)” value ([1]; Week 12, subjects also with p40/hARP values, No. 7)?
A: Its value is −48.0%.

Q: What about the “subjects who had PASI-75 response” value ([1]; IFNγ analysis set (eight subjects non PASI-75)) of the same compound?
A: Its value is “four”.

Q: What about the “subjects who had PASI-75 response” value ([1]; Langerin in dermis analysis set (ten subjects non PASI-75)) of the same compound?
A: The value was “four”.
